According to patent publication US7648967B2, “Mutagenic nucleoside analogs for the treatment of viral disease” (priority 2001, dated 2010):
Where two headings read alike, the source gives them in different places.

Key:
BVDV [1] = assay: Antiviral activity against BVDV by passaging virus in BT cells (CPE and viral titer); type: cell-based, bovine viral diarrhea virus; conditions: for viral replication: after a single passage
Procedure: (§1) Cytotoxicity was assayed using graded amounts of nucleoside analog in CV-1 cells or BT cells. 100 pfu of virus was inoculated in 10^5 CV-1 cells (MV) or BT cells (BVDV). Antiviral activity against MV or BVDV (an HCV surrogate) was tested by passaging the virus in the presence or absence of analog.
(§2) In screening experiments, replication of MV or BVDV was assessed by cytopathic effect (CPE) and viral titer after growth in cells for three to four days in the presence or absence of drug. […] Experiments were performed in triplicate (see FIGS. 2 and 4).

measles virus (MV) [2] = assay: Antiviral activity against MV by passaging virus in CV-1 cells (CPE and viral titer); type: cell-based
Procedure: as §1, §2

measles virus (MV) [3] = assay: Sequencing of MV clones (matrix and polymerase fragments) for viral mutagenesis; type: cell-based; conditions: 0.15 mM, passage 4, 1 kb matrix and 1.7 kb polymerase fragments, vs DMSO control
Procedure: Fragment of 1 kb of matrix gene and 1.7 kb of polymerase of cones MV at passage 4, MV treated with 0.15 mM 5-formyl uridine vs. DMSO control.
(§3) For 5-formyl-uridine, sequencing was performed to confirm that viral extinction was due to viral mutagenesis by the nucleoside. Clones of MV were selected from treated and control virus at passage 4 and a 1 kb fragment of the matrix and a 1.7 kb fragment of the polymerase were sequenced. […] A fragment of the BVDV glycoprotein was also sequenced, in which the BVDV virus was treated with 2 mM 5-formyl-uridine.

BVDV [4] = assay: Sequencing of BVDV glycoprotein fragment for viral mutagenesis; type: cell-based, bovine viral diarrhea virus; conditions: 2 mM, passage 1, BVDV glycoprotein fragment, vs DMSO control
Procedure: Fragment of 1 kb glycoprotein gene of clones BVDV at passage 1, BVDV treated with 2 mM 5-formyl-uridine vs. DMSO control.
as §3

CV-1 cells or BT cells = assay: Cytotoxicity with graded amounts of nucleoside analog; type: cell-based; conditions: Cercopithecidae, cell line (CV-1 or BT) not specified
Procedure: as §1

[5] = Bovine viral diarrhea virus isolates and strains
[6] = concentration of 0.5 mM, within one passage

| Compound | viral replication (BVDV [1]; BVDV) | EC50 (BVDV [1]; BVDV, read-out: EC50) [µM] | EC50 (BVDV [1]; [5]) [µM] | EC90 (BVDV [1]; [5]) [µM] | inhibition of BVDV replication (BVDV [1]; [6]) | EC50 (measles virus (MV) [2]; Measles morbillivirus, CV-1) [µM] | EC90 (measles virus (MV) [2]; Measles morbillivirus, CV-1) [µM] | inhibition of MV replication (measles virus (MV) [2]; [6]) | mutation rate above the spontaneous mutation rate of MV (measles virus (MV) [3]) [fold] | increase in mutation (BVDV [4]) [fold] | IC50 (CV-1 cells or BT cells) [µM] |
| --- | --- | --- | --- | --- | --- | --- | --- | --- | --- | --- | --- |
| Nc1nc(N)c2ncn([C@@H]3O[C@H](CO)[C@@H](O)[C@H]3O)c2n1 [2,6 diaminopurine riboside] | inhibited | 70 |  |  |  |  |  |  |  |  |  |
| O=Cc1cn([C@@H]2O[C@H](CO)[C@@H](O)[C@H]2O)c(=O)[nH]c1=O [5-formyl-uridine] |  |  | 150 | 400 | completely inhibited | 150 | 300 | completely inhibited | 1.6 | 3.75 | > 1000 |
| Nc1[nH]c(=O)nc2c1ncn2[C@@H]1O[C@H](CO)[C@@H](O)[C@H]1O [isoguanosine] | inhibited |  | 80 |  |  |  |  |  |  |  |  |
